From patent US20250032484A1, “THERAPEUTIC TARGETS AND AGENTS FOR THE TREATMENT OF POSTTRAUMATIC STRESS DISORDER” (priority 2021, published 2025)

System: VA patients with PTSD (PTSD symptoms, PTSD Checklist)
Assay: TreeScan nested case-control study of medications associated with PTSD symptom improvement (PTSD Checklist) in VA records
Assay type: in vivo, human
Details: for association with PTSD symptom improvement, in words (statistical alert at P<0.1): overall sample
Experimental: Study Sample and Data Sources. A nested case-control study was conducted within a previously established retrospective cohort that included all VA users with a clinical diagnosis of PTSD (International Classification of Diseases [ICD]-9:309.81, ICD-10: F43.1x) from Oct. 1, 1999 through Sep. 30, 2019 (Shiner et al. (2021) J Eval Clin Pract.). The data source contains information on services use, clinical diagnoses, filled prescriptions, and patient-reported outcome measures (PROMs) for PTSD using the PTSD Checklist (PCL) for these patients. This study was approved by the Veterans Institutional Review Board of Northern New England.
The goal of the current study was to evaluate any filled medications associated with PTSD symptom improvement, and as such, the analytic sample for this study included only patients with PROMs that were at least 30 days apart. 30 days was selected to allow for medications to be taken for at least one full course (typically 28 days). Patients with PROMs more than 365 days apart were excluded as these are unlikely to provide an accurate assessment of PTSD symptom change between the two time points. For patients who had two overlapping PROM intervals, those closest to 84 days in length were chosen to emulate typical PTSD medication efficacy trials (Watts et al. (2013) J Clin Psychiatry. 74: e541-550). When a patient had two or more overlapping intervals at exactly 84 days, the historically earliest interval was chosen. If patients had multiple non-overlapping intervals, all were included. Patients who met the selection criteria for PTSD in the original cohort and had at least one PROM pair where they started a new medication (defined below) constituted the overall analytic sample for the current study.
PTSD Improvement Cases and No Improvement Controls. In order to maximize the number of patients with available symptomatic measurement, two different versions of a PROM for PTSD were integrated into a single dataset (Shiner et al. (2021) J Eval Clin Pract.). The two PROMs were the PCL versions aligned to the Diagnostic and Statistical Manual of Mental Disorders (DSM), version IV and Version 5 (APA (2000): Diagnostic and Statistical Manual of Mental Disorders. 4th Edition. Text Revision: DSM-IV-TR. Arlington, VA: American Psychiatric Association: APA (2013): Diagnostic and Statistical Manual of Mental Disorders: Fifth Edition (DSM-5). Washington, D.C.: American Psychiatric Association), which will heretofore be called the PCL-IV and the PCL-5 (Blevins et al. (2015) J Trauma Stress. 28:489-498: Weathers et al. (1993) Trauma. Coping. and Adaptation. San Antonio, Texas: International Society for Traumatic Stress Studies, 9th Annual Meeting). […] A validated crosswalk (ICC=0.96) was used to convert all values to PCL-5 scoring (Moshier et al. (Under review): An empirical crosswalk for the PTSD Checklist: Translating DSM-IV to DSM-5). PTSD improvement cases were defined by a clinically meaningful improvement, which was a decrease of 15 points or more between assessment points (Lee et al. (2019) Reliable Change Index and Clinically Significant Margins for the CAPS-5 and PCL-5 among Veterans. Boston, MA: International Society for Traumatic Stress Studies, 35th Annual Meeting). […] Thus, the no PTSD improvement control group was defined as worsening of symptoms or reductions of up to 7 points on the PCL. Improvements between 8 and 14 points were of uncertain clinical significance and were therefore excluded.
Identification and Classification of New Medications. The predictors of interest were initiation of medications for any indication. Candidate agents included those that were started in the interval between PCL pairs and continued for at least a 28-day supply. When patients started multiple medications between a given PCL pair, they contributed information for each of the medications in the tree.

[1] = all patients in the overall sample
[2] = baseline PCL score of 38 or higher and PTSD diagnosis within 30 days
[3] = case = improved by 15 or more points on PTSD Checklist, all patients in the overall sample
[4] = improvement in PTSD, all patients in the overall sample
[5] = baseline PCL 38 or higher, PTSD diagnosis within 30 days, without any concurrent evidence-based treatment
[6] = overall sample without any concurrent evidence-based treatment

Compound	EXP = Expected Cases [1]	EXP = Expected Cases [2]	O:E = Observed Cases over Expected Cases [2]	OBS = Observed Cases [2]	OBS = Observed Cases [3]	O:E = Observed Cases over Expected Cases [4]	EXP = Expected Cases [5]	O:E = Observed Cases over Expected Cases [5]	OBS = Observed Cases [5]	association with PTSD symptom improvement, in words (statistical alert at P<0.1)	EXP = Expected Cases [6]	O:E = Observed Cases over Expected Cases [6]	OBS = Observed Cases [6]	O:E = Observed Cases over Expected Cases (improvement in PTSD, all patients in the overall sample, listed as pibrentasvir)	O:E = Observed Cases over Expected Cases (improvement in PTSD, all patients in the overall sample, listed as velpatasvir)
CNCC[C@@H](Oc1ccccc1C)c1ccccc1 [Atomoxetine]	74	65	1.41	92	104	1.40	–	–	–	–	–	–	–	–	–
CN(C)CCCC1(c2ccc(F)cc2)OCc2cc(C#N)ccc21 (centres unmarked) [Citalopram]	1508	1202	1.10	1315	1653	1.10	632	1.25	785	similarly small associations	814	1.28	1039	–	–
CN(C)CCC[C@@]1(c2ccc(F)cc2)OCc2cc(C#N)ccc21 [Escitalopram]	–	–	–	–	–	–	–	–	–	–	474	–	558	–	–
Nc1nc2ncc(CNc3ccc(C(=O)N[C@@H](CCC(=O)O)C(=O)O)cc3)nc2c(=O)[nH]1 [Folic Acid]	445	391	1.20	469	567	1.27	–	–	–	–	134	1.38	185	–	–
[Li] [Lithium]	246	–	–	–	304	1.24	–	–	–	similarly small associations	92	1.38	127	–	–
COc1ccc2[nH]cc(CCNC(C)=O)c2c1 [Melatonin]	1161	1033	1.10	1131	1295	1.12	–	–	–	–	–	–	–	–	–
CN1CCN2c3ncccc3Cc3ccccc3C2C1 (centres unmarked) [Mirtazapine]	–	–	–	–	–	–	–	–	–	–	755	1.13	849	–	–
CN1CCCC1c1cccnc1 (centres unmarked) [Nicotine]	2109	1736	–	2007	2371	1.13	522	1.17	610	–	–	–	–	–	–
COC(=O)N[C@H](C(=O)N1CCC[C@H]1c1nc2cc(F)c([C@H]3CC[C@H](c4cc5[nH]c([C@@H]6CCCN6C(=O)[C@@H](NC(=O)OC)[C@@H](C)OC)nc5cc4F)N3c3cc(F)c(N4CCC(c5ccc(F)cc5)CC4)c(F)c3)cc2[nH]1)[C@@H](C)OC [Pibrentasvir, pibrentasvir]	16	14	2.21	30	33	2.09	4	3.52	14	–	5	3.09	14	2.09	–
Cc1ncc(C[n+]2csc(CCO)c2C)c(N)n1 [Thiamine]	351	304	1.24	377	444	1.27	–	–	–	–	106	1.38	146	–	–
O=c1n(CCCN2CCN(c3cccc(Cl)c3)CC2)nc2ccccn12 [Trazodone]	4061	3396	1.07	3610	4308	1.06	893	1.12	992	similarly small associations	1157	1.1	1272	–	–
COC[C@H]1C[C@@H](c2ncc(-c3ccc4c(c3)COc3cc5c(ccc6[nH]c([C@@H]7CC[C@H](C)N7C(=O)[C@@H](NC(=O)OC)C(C)C)nc65)cc3-4)[nH]2)N(C(=O)[C@H](NC(=O)OC)c2ccccc2)C1 [Velpatasvir, velpatasvir]	11	10	2.17	21	24	2.10	–	–	–	–	–	–	–	–	2.10
COC(=O)N[C@H](C(=O)N1CC2(CC2)C[C@H]1c1nc(-c2ccc3c(c2)C(F)(F)c2cc(-c4ccc5nc([C@@H]6[C@H]7CC[C@H](C7)N6C(=O)[C@@H](NC(=O)OC)C(C)C)[nH]c5c4)ccc2-3)c[nH]1)C(C)C [ledipasvir]	–	–	–	–	–	–	–	–	–	Neither sofosbuvir nor ledipasvir were associated with a significantly higher than expected improvement	–	–	–	–	–
CC(C)OC(=O)[C@H](C)N[P@](=O)(OC[C@H]1O[C@@H](n2ccc(=O)[nH]c2=O)[C@](C)(F)[C@@H]1O)Oc1ccccc1 [sofosbuvir]	–	–	–	–	–	–	–	–	–	Neither sofosbuvir nor ledipasvir were associated with a significantly higher than expected improvement	–	–	–	–	–
Cholecalciferol	2470	2070	1.08	2238	2647	1.07	–	–	–	–	–	–	–	–	–
